Test results reported in the CheMixHub viscosity set.

Assay: xn = mol fraction of the nth substance listed

NCCN + O
Conditions | viscosity [mPa·s]
298.15 K, 101 kPa, x1 = 0.044 | 1.221
298.15 K, 101 kPa, x1 = 0.086 | 1.932
298.15 K, 101 kPa, x1 = 0.161 | 4.028
298.15 K, 101 kPa, x1 = 0.194 | 5.2
298.15 K, 101 kPa, x1 = 0.245 | 6.69
298.15 K, 101 kPa, x1 = 0.3 | 8.057
298.15 K, 101 kPa, x1 = 0.33 | 8.351
298.15 K, 101 kPa, x1 = 0.35 | 8.258
298.15 K, 101 kPa, x1 = 0.374 | 7.825
298.15 K, 101 kPa, x1 = 0.387 | 7.734
298.15 K, 101 kPa, x1 = 0.397 | 7.379
298.15 K, 101 kPa, x1 = 0.416 | 7.048
298.15 K, 101 kPa, x1 = 0.441 | 6.544
298.15 K, 101 kPa, x1 = 0.45 | 6.374
298.15 K, 101 kPa, x1 = 0.474 | 6.012
298.15 K, 101 kPa, x1 = 0.502 | 5.885
298.15 K, 101 kPa, x1 = 0.517 | 5.667
298.15 K, 101 kPa, x1 = 0.528 | 5.43
298.15 K, 101 kPa, x1 = 0.55 | 4.61
298.15 K, 101 kPa, x1 = 0.599 | 3.684
298.15 K, 101 kPa, x1 = 0.664 | 3.054
298.15 K, 101 kPa, x1 = 0.699 | 2.569
298.15 K, 101 kPa, x1 = 0.801 | 1.94
298.15 K, 101 kPa, x1 = 0.9 | 1.533
303.15 K, 101.3 kPa, x1 = 0.1138 | 2.607
303.15 K, 101.3 kPa, x1 = 0.2306 | 6.369
303.15 K, 101.3 kPa, x1 = 0.3102 | 7.766
303.15 K, 101.3 kPa, x1 = 0.4116 | 6.837
303.15 K, 101.3 kPa, x1 = 0.5452 | 4.416
303.15 K, 101.3 kPa, x1 = 0.6294 | 3.321
303.15 K, 101.3 kPa, x1 = 0.7296 | 2.434
303.15 K, 101.3 kPa, x1 = 0.8507 | 1.789
303.15 K, 101.33 kPa, x1 = 0.05 | 1.368
303.15 K, 101.33 kPa, x1 = 0.0999 | 2.291
303.15 K, 101.33 kPa, x1 = 0.15 | 3.635
303.15 K, 101.33 kPa, x1 = 0.1998 | 5.292
303.15 K, 101.33 kPa, x1 = 0.2488 | 6.797
303.15 K, 101.33 kPa, x1 = 0.2749 | 7.372
303.15 K, 101.33 kPa, x1 = 0.2997 | 7.678
303.15 K, 101.33 kPa, x1 = 0.3246 | 7.767
303.15 K, 101.33 kPa, x1 = 0.3488 | 7.67
303.15 K, 101.33 kPa, x1 = 0.3739 | 7.384
303.15 K, 101.33 kPa, x1 = 0.3944 | 7.02
303.15 K, 101.33 kPa, x1 = 0.4542 | 5.965
308.15 K, 101.3 kPa, x1 = 0.1138 | 2.203
308.15 K, 101.3 kPa, x1 = 0.2306 | 5.069
308.15 K, 101.3 kPa, x1 = 0.3102 | 6.072
308.15 K, 101.3 kPa, x1 = 0.4116 | 5.411
308.15 K, 101.3 kPa, x1 = 0.5452 | 3.639
308.15 K, 101.3 kPa, x1 = 0.6294 | 2.793
308.15 K, 101.3 kPa, x1 = 0.7296 | 2.01
308.15 K, 101.3 kPa, x1 = 0.8507 | 1.574
308.15 K, 101.33 kPa, x1 = 0.05 | 1.208
308.15 K, 101.33 kPa, x1 = 0.0999 | 1.971
308.15 K, 101.33 kPa, x1 = 0.15 | 3.059
308.15 K, 101.33 kPa, x1 = 0.1998 | 4.347
308.15 K, 101.33 kPa, x1 = 0.2488 | 5.484
308.15 K, 101.33 kPa, x1 = 0.2749 | 5.92
308.15 K, 101.33 kPa, x1 = 0.2997 | 6.133
308.15 K, 101.33 kPa, x1 = 0.3246 | 6.213
313.15 K, 101.3 kPa, x1 = 0.1138 | 1.911
313.15 K, 101.3 kPa, x1 = 0.2306 | 4.122
313.15 K, 101.3 kPa, x1 = 0.3102 | 4.906
313.15 K, 101.3 kPa, x1 = 0.4116 | 4.41
313.15 K, 101.3 kPa, x1 = 0.5452 | 3.07
313.15 K, 101.3 kPa, x1 = 0.6294 | 2.402
313.15 K, 101.3 kPa, x1 = 0.7296 | 1.842
313.15 K, 101.3 kPa, x1 = 0.8507 | 1.416
318.15 K, 101.3 kPa, x1 = 0.1138 | 1.652
318.15 K, 101.3 kPa, x1 = 0.2306 | 3.388
318.15 K, 101.3 kPa, x1 = 0.3102 | 3.963
318.15 K, 101.3 kPa, x1 = 0.4116 | 3.585
318.15 K, 101.3 kPa, x1 = 0.5452 | 2.574
318.15 K, 101.3 kPa, x1 = 0.6294 | 2.066
318.15 K, 101.3 kPa, x1 = 0.7296 | 1.613
318.15 K, 101.3 kPa, x1 = 0.8507 | 1.258
323.15 K, 101 kPa, x1 = 0.044 | 0.684
323.15 K, 101 kPa, x1 = 0.086 | 0.92
323.15 K, 101 kPa, x1 = 0.161 | 1.549
323.15 K, 101 kPa, x1 = 0.194 | 1.881
323.15 K, 101 kPa, x1 = 0.245 | 2.184
323.15 K, 101 kPa, x1 = 0.3 | 2.551
323.15 K, 101 kPa, x1 = 0.33 | 2.571
323.15 K, 101 kPa, x1 = 0.35 | 2.643
323.15 K, 101 kPa, x1 = 0.374 | 2.423
323.15 K, 101 kPa, x1 = 0.387 | 2.401
323.15 K, 101 kPa, x1 = 0.397 | 2.306
323.15 K, 101 kPa, x1 = 0.416 | 2.291
323.15 K, 101 kPa, x1 = 0.441 | 2.214
323.15 K, 101 kPa, x1 = 0.45 | 2.069
323.15 K, 101 kPa, x1 = 0.474 | 2.058
323.15 K, 101 kPa, x1 = 0.502 | 1.991
323.15 K, 101 kPa, x1 = 0.517 | 1.919
323.15 K, 101 kPa, x1 = 0.528 | 1.907
323.15 K, 101 kPa, x1 = 0.55 | 1.733
323.15 K, 101 kPa, x1 = 0.599 | 1.539
323.15 K, 101 kPa, x1 = 0.664 | 1.32
323.15 K, 101 kPa, x1 = 0.699 | 1.174
323.15 K, 101 kPa, x1 = 0.801 | 0.978
323.15 K, 101 kPa, x1 = 0.9 | 0.847
